± gives the standard deviation of the averaged measurements.
Key:
[1] = compound: CCN(CC)CCCCNc1ncc2cc(-c3cc(OC)cc(OC)c3)c(NC(=O)NC(C)(C)C)nc2n1; test: surviving fraction relative to DMSO-only wells; higher = less growth inhibition; settings: exposure time: 5 days
Method in brief: (§1)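 Lines were retained only if, across three screens, replicate Pearson r was >0.7 and median Z' was >0.3. Viability was measured as CellTiter-Glo luminescence and reported as surviving fraction relative to the median of DMSO-only wells. Readings followed 10 minutes at room temperature, after log-phase tumour cells seeded at 250–500 per well in 384-well plates had been exposed, from 24 hours after seeding, continuously for five days to inhibitors at 0.5, 1, 5, 10, 50, 100, 500 and 1000 nM.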

NUTLIN3 = compound: COc1ccc(C2=N[C@@H](c3ccc(Cl)cc3)[C@@H](c3ccc(Cl)cc3)N2C(=O)N2CCNC(=O)C2)c(OC(C)C)c1 [NUTLIN3]; test: as above; settings: exposure time: 5 days
Method in brief: as §1

| Test System | surviving fraction ([1]; 0.5 nM) | surviving fraction ([1]; 1 nM) | surviving fraction ([1]; 5 nM) | surviving fraction ([1]; 10 nM) | surviving fraction ([1]; 50 nM) | surviving fraction ([1]; 100 nM) | surviving fraction ([1]; 500 nM) | surviving fraction ([1]; 1000 nM) | surviving fraction (NUTLIN3; 0.5 nM) | surviving fraction (NUTLIN3; 1 nM) | surviving fraction (NUTLIN3; 5 nM) | surviving fraction (NUTLIN3; 10 nM) | surviving fraction (NUTLIN3; 50 nM) | surviving fraction (NUTLIN3; 100 nM) | surviving fraction (NUTLIN3; 500 nM) | surviving fraction (NUTLIN3; 1000 nM) |
| --- | --- | --- | --- | --- | --- | --- | --- | --- | --- | --- | --- | --- | --- | --- | --- | --- |
| MDAMB436 BREAST | 0.974 ± 0.053 | 0.802 ± 0.074 | 0.912 ± 0.026 | 0.911 ± 0.041 | 0.943 ± 0.1 | 0.974 ± 0.033 | 0.911 ± 0.032 | 0.878 ± 0.032 | 0.91 ± 0.076 | 0.835 ± 0.092 | 0.923 ± 0.033 | 0.928 ± 0.063 | 0.924 ± 0.074 | 0.895 ± 0.12 | 0.881 ± 0.041 | 0.941 ± 0.074 |
| MDAMB453 BREAST | 0.981 ± 0.029 | 1.03 ± 0.032 | 1.05 ± 0.058 | 1.05 ± 0.043 | 1.03 ± 0.082 | 1.04 ± 0.09 | 1.07 ± 0.033 | 0.814 ± 0.053 | 1.02 ± 0.053 | 1.05 ± 0.029 | 1.07 ± 0.053 | 1.08 ± 0.024 | 1.13 ± 0.083 | 1.13 ± 0.13 | 1.04 ± 0.066 | 1.05 ± 0.035 |
| MDAMB468 BREAST | 0.929 ± 0.043 | 0.959 ± 0.06 | 0.996 ± 0.005 | 0.985 ± 0.003 | 0.975 ± 0.055 | 1.1 ± 0.033 | 0.983 ± 0.033 | 0.956 ± 0.021 | 0.994 ± 0.026 | 0.978 ± 0.019 | 1.07 ± 0.071 | 1.02 ± 0.067 | 1.06 ± 0.07 | 1.04 ± 0.076 | 1.04 ± 0.049 | 0.982 ± 0.041 |
| MFM223 BREAST | 1.02 ± 0.04 | 1.1 ± 0.022 | 0.982 ± 0.1 | 0.823 ± 0.089 | 0.361 ± 0.029 | 0.277 ± 0.019 | 0.282 ± 0.026 | 0.258 ± 0.012 | 1.07 ± 0.079 | 1.04 ± 0.13 | 1.08 ± 0.058 | 1.06 ± 0.027 | 1.12 ± 0.045 | 1.12 ± 0.073 | 1.12 ± 0.063 | 1.07 ± 0.068 |
| MG63 BONE | 0.9463 ± 0.0067 | 0.983 ± 0.012 | 0.998 ± 0.013 | 0.965 ± 0.016 | 0.8687 ± 0.0035 | 0.771 ± 0.013 | 0.6363 ± 0.0049 | 0.641 ± 0.016 | 1.01 ± 0.039 | 1 ± 0.014 | 1.07 ± 0.046 | 1.05 ± 0.019 | 1.06 ± 0.029 | 1.05 ± 0.018 | 0.989 ± 0.042 | 1.01 ± 0.043 |
| MHM BONE | 0.991 ± 0.026 | 0.993 ± 0.014 | 0.982 ± 0.023 | 1.001 ± 0.0095 | 0.964 ± 0.02 | 0.915 ± 0.029 | 0.7063 ± 0.007 | 0.664 ± 0.017 | 0.995 ± 0.017 | 0.998 ± 0.019 | 1.03 ± 0.028 | 1.02 ± 0.024 | 1.01 ± 0.023 | 1.02 ± 0.046 | 0.963 ± 0.018 | 0.9187 ± 0.0085 |
| NCIH441 LUNG | 1 ± 0.052 | 1.04 ± 0.052 | 1 ± 0.022 | 1.01 ± 0.09 | 1.04 ± 0.052 | 1.01 ± 0.059 | 1.02 ± 0.053 | 1.06 ± 0.051 | 1.04 ± 0.092 | 1.04 ± 0.028 | 1.01 ± 0.058 | 1.05 ± 0.051 | 1.07 ± 0.095 | 1.08 ± 0.1 | 1.2 ± 0.06 | 1.14 ± 0.065 |
| NOS1 BONE | 1.11 ± 0.046 | 1.19 ± 0.1 | 1.15 ± 0.094 | 1.08 ± 0.056 | 0.989 ± 0.16 | 0.965 ± 0.11 | 0.609 ± 0.046 | 0.37 ± 0.05 | 1.14 ± 0.072 | 0.978 ± 0.1 | 1.142 ± 0.0078 | 1.17 ± 0.16 | 1.14 ± 0.071 | 1.15 ± 0.1 | 1.08 ± 0.042 | 1.08 ± 0.04 |
| NY BONE | 0.932 ± 0.031 | 0.942 ± 0.013 | 0.964 ± 0.015 | 1 ± 0.029 | 0.895 ± 0.019 | 0.701 ± 0.015 | 0.337 ± 0.019 | 0.31 ± 0.004 | 1 ± 0.019 | 0.95 ± 0.034 | 0.997 ± 0.033 | 1.015 ± 0.0098 | 1.05 ± 0.048 | 1.01 ± 0.034 | 0.925 ± 0.036 | 0.972 ± 0.012 |
| OS25HAL BONE | 0.969 ± 0.0072 | 0.983 ± 0.023 | 0.973 ± 0.0036 | 1 ± 0.025 | 1 ± 0.0091 | 1 ± 0.013 | 0.979 ± 0.0085 | 1.03 ± 0.03 | 0.975 ± 0.014 | 0.998 ± 0.018 | 0.979 ± 0.013 | 0.974 ± 0.03 | 1.06 ± 0.0081 | 1.064 ± 0.0045 | 1.052 ± 0.0056 | 1.06 ± 0.013 |
| OSHN BONE | 1 ± 0.016 | 1.01 ± 0.017 | 1.01 ± 0.024 | 1.03 ± 0.033 | 0.993 ± 0.023 | 1.01 ± 0.033 | 1.02 ± 0.035 | 1.04 ± 0.042 | 1.06 ± 0.036 | 1.05 ± 0.057 | 1.06 ± 0.034 | 1.05 ± 0.044 | 1.09 ± 0.058 | 1.07 ± 0.033 | 1.08 ± 0.034 | 1.07 ± 0.029 |
| PCI30 HEADNECK | 0.906 ± 0.074 | 0.969 ± 0.09 | 0.984 ± 0.11 | 1.08 ± 0.058 | 1.04 ± 0.054 | 1.1 ± 0.1 | 0.912 ± 0.011 | 0.995 ± 0.093 | 1.01 ± 0.034 | 0.93 ± 0.019 | 1.04 ± 0.026 | 1.06 ± 0.064 | 1.14 ± 0.062 | 1.09 ± 0.05 | 1.02 ± 0.041 | 1.04 ± 0.092 |
| RDES SOFT TISSUE | 1.2 ± 0.034 | 1.35 ± 0.094 | 1.25 ± 0.088 | 1.26 ± 0.11 | 1.13 ± 0.032 | 1.25 ± 0.16 | 1.08 ± 0.29 | 1.06 ± 0.1 | 1.25 ± 0.074 | 1.32 ± 0.076 | 1.07 ± 0.044 | 1.18 ± 0.14 | 1.17 ± 0.13 | 1 ± 0.17 | 1.4 ± 0.22 | 1.25 ± 0.17 |
| S68 BREAST | 0.948 ± 0.29 | 1.01 ± 0.22 | 1.285 ± 0.0036 | 0.836 ± 0.1 | 1.02 ± 0.06 | 1.11 ± 0.3 | 0.864 ± 0.18 | 0.81 ± 0.22 | 0.854 ± 0.16 | 0.785 ± 0.32 | 0.92 ± 0.03 | 0.976 ± 0.16 | 1.28 ± 0.18 | 0.99 ± 0.07 | 0.936 ± 0.25 | 1.01 ± 0.22 |
| SAOS2 BONE | 1.09 ± 0.035 | 1.195 ± 0.011 | 1.2 ± 0.077 | 1.21 ± 0.042 | 1.23 ± 0.043 | 1.19 ± 0.037 | 0.995 ± 0.051 | 0.906 ± 0.054 | 1.16 ± 0.028 | 0.981 ± 0.037 | 1.13 ± 0.043 | 1.09 ± 0.048 | 1.15 ± 0.017 | 1.2 ± 0.029 | 1.12 ± 0.033 | 1.043 ± 0.0023 |
| SCC003 HEADNECK | 0.927 ± 0.046 | 1.02 ± 0.055 | 1.02 ± 0.092 | 1.01 ± 0.086 | 0.981 ± 0.037 | 1.11 ± 0.091 | 1.09 ± 0.13 | 0.988 ± 0.097 | 1.05 ± 0.12 | 1.01 ± 0.081 | 1.03 ± 0.12 | 1 ± 0.088 | 1.06 ± 0.062 | 1.12 ± 0.07 | 1.09 ± 0.089 | 1.07 ± 0.13 |
| SCC36 HEADNECK | 1.1 ± 0.082 | 1.03 ± 0.12 | 1.1 ± 0.15 | 1.19 ± 0.028 | 0.978 ± 0.086 | 1.04 ± 0.043 | 0.83 ± 0.039 | 0.692 ± 0.082 | 1.07 ± 0.15 | 1.04 ± 0.087 | 1.16 ± 0.014 | 1.04 ± 0.03 | 1.19 ± 0.069 | 1.17 ± 0.044 | 1.04 ± 0.1 | 1.1 ± 0.051 |
| SCC47 HEADNECK | 0.979 ± 0.033 | 0.993 ± 0.082 | 0.996 ± 0.05 | 1.07 ± 0.047 | 0.968 ± 0.079 | 1 ± 0.14 | 1.05 ± 0.067 | 0.995 ± 0.019 | 1.08 ± 0.082 | 1.03 ± 0.023 | 1.14 ± 0.026 | 1.135 ± 0.0096 | 1.13 ± 0.051 | 1.16 ± 0.088 | 1.07 ± 0.052 | 1.14 ± 0.099 |
| SCC90 HEADNECK | 0.884 ± 0.044 | 0.96 ± 0.036 | 0.839 ± 0.18 | 0.951 ± 0.036 | 0.88 ± 0.049 | 0.961 ± 0.17 | 0.883 ± 0.17 | 0.814 ± 0.035 | 1.05 ± 0.051 | 1.04 ± 0.22 | 1.13 ± 0.15 | 1.11 ± 0.23 | 1.12 ± 0.12 | 1.02 ± 0.026 | 0.997 ± 0.098 | 1.04 ± 0.098 |
